Read-outs that look alike come from different tables or passages of the source.
B1: iPDL1 (murine soluble PD-1 extracellular domain fused with IgG1 Fc) (Fc fusion)
chain: LEVPNGPWRSLTFYPAWLTVSEGANATFTCSLSNWSEDLMLNWNRLSPSNQTEKQAAFCNGLSQPVQDARFQIIQLPNRHDFHMNILDTRRNDSGIYLCGAISLHPKAKIEESPGAELVVTERILETSTRYPSPSPKPEGRFQPRGPTIKPCPPCKCPAPNLLGGPSVFIFPPKIKDVLMISLSPIVTCVVVDVSEDDPDVQISWFVNNVEVHTAQTQTHREDYNSTLRVVSALPIQHQDWMSGKEFKCKVNNKDLPAPIERTISKPKGSVRAPQVYVLPPPEEEMTKKQVTLTCMVTDFMPEDIYVEWTNNGKTELNYKNTEPVLDSDGSYFMYSKLRVEKKNWVERNSYSCSVVHEGLHNHHTTKSFSRTPGK
notes: detection used anti-IgG2a-Fc / anti-mouse IgG; also called soluble PD-1-Fc; soluble PD-1-IgG Fc
B2: iPDL1: murine soluble PD-1 extracellular domain fused with IgG1 Fc as a PD-L1 inhibitor, SEQ ID NO:2 (protein)
chain: MWVRQVPWSFTWAVLQLSWQSGWLLEVPNGPWRSLTFYPAWLTVSEGANATFTCSLSNWSEDLMLNWNRLSPSNQTEKQAAFCNGLSQPVQDARFQIIQLPNRHDFHMNILDTRRNDSGIYLCGAISLHPKAKIEESPGAELVVTERILETSTRYPSPSPKPEGRFQPRGPTIKPCPPCKCPAPNLLGGPSVFIFPPKIKDVLMISLSPIVTCVVVDVSEDDPDVQISWFVNNVEVHTAQTQTHREDYNSTLRVVSALPIQHQDWMSGKEFKCKVNNKDLPAPIERTISKPKGSVRAPQVYVLPPPEEEMTKKQVTLTCMVTDFMPEDIYVEWTNNGKTELNYKNTEPVLDSDGSYFMYSKLRVEKKNWVERNSYSCSVVHEGLHNHHTTKSFSRTPGK
modifications: Mouse

Legend:
[1] = molecular target: T1, H-2D^b (Mus musculus, UniProt P01899); conditions: MHC allele H-2D^b, cited from earlier work
T1 sequence (P01899 25-362): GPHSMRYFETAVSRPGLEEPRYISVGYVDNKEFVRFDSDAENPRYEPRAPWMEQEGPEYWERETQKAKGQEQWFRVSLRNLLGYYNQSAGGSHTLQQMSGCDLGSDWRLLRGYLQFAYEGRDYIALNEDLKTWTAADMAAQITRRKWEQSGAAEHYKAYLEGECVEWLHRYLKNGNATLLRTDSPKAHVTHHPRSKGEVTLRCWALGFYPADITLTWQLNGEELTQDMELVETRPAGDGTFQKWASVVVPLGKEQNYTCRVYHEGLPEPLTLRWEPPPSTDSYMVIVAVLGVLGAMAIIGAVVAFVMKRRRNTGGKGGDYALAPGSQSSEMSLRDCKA
T1 sequence (P01887 21-119 partner): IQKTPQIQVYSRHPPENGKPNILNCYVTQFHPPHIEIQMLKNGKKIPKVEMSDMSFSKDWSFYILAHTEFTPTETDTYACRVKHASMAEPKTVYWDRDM

[2] = molecular target: T2, H-2K^b (Mus musculus, UniProt P01901); conditions: MHC allele H-2K^b, cited from earlier work
T2 sequence (P01901 22-369): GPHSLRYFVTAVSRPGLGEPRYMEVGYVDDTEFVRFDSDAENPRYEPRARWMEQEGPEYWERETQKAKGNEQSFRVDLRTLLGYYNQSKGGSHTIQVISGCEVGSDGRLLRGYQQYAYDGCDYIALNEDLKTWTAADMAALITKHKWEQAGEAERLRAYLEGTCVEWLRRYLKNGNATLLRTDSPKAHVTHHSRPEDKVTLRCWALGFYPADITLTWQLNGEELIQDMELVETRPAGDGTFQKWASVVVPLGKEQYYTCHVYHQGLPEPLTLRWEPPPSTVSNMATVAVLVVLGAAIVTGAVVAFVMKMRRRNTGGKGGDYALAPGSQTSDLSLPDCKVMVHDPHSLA
T2 sequence (P01887 21-119 partner): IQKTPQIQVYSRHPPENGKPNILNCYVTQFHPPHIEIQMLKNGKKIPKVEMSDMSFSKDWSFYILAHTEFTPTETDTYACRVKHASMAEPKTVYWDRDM

[3] = molecular target: T3, PD-L1^+ tumor cells (Homo sapiens, UniProt Q9NZQ7); type: cell-based; conditions: PD-L1-transduced 293T or K562, IFN-γ pre-stimulated H226 or U251
T3 construct: endogenous in cells; host or cells: IFN-γ-stimulated U251 or H226

[4] = molecular target: PD-L1 (Homo sapiens, UniProt Q9NZQ7); assay: Surface plasmon resonance (SPR)-binding assay; conditions: immobilized PD-L1-His tag protein
Procedure: Surface plasmon resonance (SPR)-binding assays: The assays were carried out at 25° C. using a Biacore T100 (USC NanoBiophysics Center). CMS sensor chips were activated by a 7 min injection of a 1:1 mixture of N-hydroxysuccinimide and 1-ethyl-3-(3-dimethylaminopropyl) carbodiimide hydrochloride at a flow rate of 10 μL/min. The PD-L1-His tag protein was prepared at a concentration of 10 μg/mL in 10 mM acetate buffer, pH 4.0, and immobilized to the sensor chips by amine linkage, with the typical immobilization levels being 100 response units. For blocking sensor chips, 70 μL of 1M ethanolamine-HCl buffer, pH 8.5, was injected and the chips were further washed with 10 μL of 10 mM glycine-HCl buffer, pH 1.5. For analyzing the binding and equilibrium affinity of ihPDL1 or a-PD-L1 antibody (biolegend, cat 329702), 5 serial dilutions of ihPDL1 starting from 200 μg/mL, or 6 serial dilutions of α-PD-L1 antibody starting from 100 μg/mL were injected at a flow rate of 30 μL/min over the sensor chips coupled with PD-L1 protein. The data sets were analyzed using a model for 1:1 binding.

[5] = molecular target: T4, PD-1/PD-L1 interaction (Homo sapiens, UniProt Q9NZQ7); type: binding; conditions: purified ihPDL1 at the tested concentrations
T4 construct: purchased BPS Bioscience

[6] = system: T-cells from healthy PBMCs with allogeneic mature DCs; type: cell-based, human; conditions: purified ihPDL1 at 0.01 μg/mL, 0.1 μg/mL, or 1 μg/mL
[7] = system: K562/PD-L1, U251/PD-L1, H226/PD-L1 target cells; assay: ADCC assay (Jurkat effector cells); type: cell-based, human; conditions: any of the PD-L1-expressed target cell lines
Procedure: ADCC assay: Purified ihPDL1 was analyzed with ADCC kit according to the manufacturer's instruction (Promega, Madison, Wis.).

[8] = molecular target: PD-L1 protein (Abcam, ab130039) (UniProt Q9EP73); assay: competitive ELISA: PD-L1-coated plate, displacement of mouse PD-1-biotin
[9] = molecular target: PD-L1 protein (Abcam, ab130039) (UniProt Q9EP73 19-238); assay: as above
[10] = molecular target: T5, PD-L1 on MC38 tumor cells (Mus musculus, UniProt Q9EP73); type: cell-based
T5 construct: endogenous in cells; host or cells: MC38 (wild type, IFN-γ stimulated, or PD-L1 shRNA knock-down as negative control)

[11] = molecular target: T6, PD-L1 (Mus musculus, UniProt Q9EP73); type: in vivo; conditions: MC38, untreated distant tumors
T6 construct: from tissue; host or cells: single-cell suspensions of treated and distant MC38 tumours from C57BL/6 mice

[12] = system: PD-1+ CD8+ T cells; conditions: purified iPDL1 in comparison to control IgG
From the text: (FIG. 7I) PD-1+ CD8+ T cells isolated from VV-treated MC38 tumors were cocultured with MC38 cells in the presence of purified iPDL1 or IgG. IFN-γ+ frequencies of PD-1+ T cells were shown from one of two independent experiments.

[13] = mutant peptide, read-out: IC50 (mutant)
[14] = wild type peptide, read-out: IC50 (Wild Type)

T5 sequence (Q9EP73 19-290): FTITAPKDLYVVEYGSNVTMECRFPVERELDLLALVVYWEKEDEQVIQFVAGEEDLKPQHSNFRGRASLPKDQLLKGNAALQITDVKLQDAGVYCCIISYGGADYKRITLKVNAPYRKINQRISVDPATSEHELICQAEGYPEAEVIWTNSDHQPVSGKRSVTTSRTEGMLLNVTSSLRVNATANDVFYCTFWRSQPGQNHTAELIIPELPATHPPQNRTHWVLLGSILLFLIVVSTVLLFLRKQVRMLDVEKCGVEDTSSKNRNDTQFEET
PD-L1 (Homo sapiens, UniProt Q9NZQ7), sequence (Q9NZQ7 19-290): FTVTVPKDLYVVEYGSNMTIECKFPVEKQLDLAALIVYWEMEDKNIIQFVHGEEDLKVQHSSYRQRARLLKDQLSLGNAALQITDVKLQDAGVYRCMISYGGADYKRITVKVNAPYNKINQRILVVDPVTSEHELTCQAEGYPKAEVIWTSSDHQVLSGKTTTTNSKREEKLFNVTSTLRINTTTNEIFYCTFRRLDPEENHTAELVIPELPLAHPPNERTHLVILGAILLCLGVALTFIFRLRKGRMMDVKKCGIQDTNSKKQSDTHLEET
T3 sequence (Q9NZQ7 19-290): as above
T4 sequence (Q9NZQ7 19-238 limits assumed): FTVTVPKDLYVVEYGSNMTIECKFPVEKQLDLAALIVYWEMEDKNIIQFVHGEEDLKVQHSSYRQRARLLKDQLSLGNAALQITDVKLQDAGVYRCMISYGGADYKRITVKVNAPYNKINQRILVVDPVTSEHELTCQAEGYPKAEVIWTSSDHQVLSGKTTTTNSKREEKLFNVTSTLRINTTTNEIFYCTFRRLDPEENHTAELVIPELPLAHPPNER
T6 sequence (Q9EP73 19-290): as the sequence (Q9EP73 19-290) above
PD-L1 protein (Abcam, ab130039) (UniProt Q9EP73), sequence (Q9EP73 19-238 limits assumed): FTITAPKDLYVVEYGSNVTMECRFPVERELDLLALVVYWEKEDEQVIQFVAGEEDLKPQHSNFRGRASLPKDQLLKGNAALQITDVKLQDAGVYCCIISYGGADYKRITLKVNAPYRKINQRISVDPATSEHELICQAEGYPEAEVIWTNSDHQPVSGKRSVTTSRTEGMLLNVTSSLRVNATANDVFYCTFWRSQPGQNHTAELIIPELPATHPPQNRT
PD-L1 protein (Abcam, ab130039) (UniProt Q9EP73 19-238), sequence (Q9EP73 19-238 limits assumed): as above

Molecule	IC50 [1, 13]	IC50 [1, 14]	also measured
ASMTN(R/M)ELM [Pep4]	2 nM	3 nM	
AQL(P/A)NDVVL [Pep2]	9 nM	100 nM	
VSPVNDVDV [Pep9, VSPVND(V/L)DV]	44 nM	18 nM	
SIIVFNLV [Pep5, SIIVFNL(V/L)]			IC50 [2, 13]: 8 nM; IC50 [2, 14]: 34 nM
SSP(D/Y)SLHYL [Pep6]	211 nM	685 nM	
ihPDL1: soluble human PD-1 (extracellular) - IgG1 Fc fusion protein, human PD-L1 inhibitor, SEQ ID NO:52			binding of purified ihPDL1 to PD-L1^+ tumor cells [3]: bound to PD-L1^+ tumor cells; binding to PD-L1 (SPR) [4]: specifically bind to PD-L1; blocking the biotin-PD1 binding to PD-L1-coated wells [5]: equivalent activity to the commercial anti-PD-L1; T cell activation (IFN-γ level) in MLR [6]: equivalent activity to the commercial anti-PD-L1; concentration that significantly enhanced luc production in the Jurkat effector cells [7]: ≤ 10 ng/mL
AALLNSAGL [Pepl, AALLNSA(G/V)L]	3 nM	52 nM	
SAIRSYQDV [Pep8, SAIRSYQ(D/Y)V]	35 nM	755 nM	
FMACNLLLV [Pep11, FM(A/S)CNLLLV]	79 nM	24 nM	
MAPIDHTAM [Pep3, MAPIDHT(A/T)M]	30 nM	102 nM	
anti-PD-L1 antibody control (Biolegend, 124301)			IC50 [8]: 4.53 nM
MGGMNRRPI [Pep10, MG(G/V)MNRRPI]	77 nM	841 nM	
(S/I)MTQHLEPI [Pep7]	78 nM	29 nM	
B1			IC50 [9]: 5.63 nM
B2			binding of purified protein to PD-L1+ tumor cells ([10]; 50 μg/mL, MC38 vs PD-L1-knocked down MC38, anti-IgG Fc staining): able to bind to PD-L1+ tumor cells, but not to PD-L1-knocked down tumor cells; binding of secreted iPDL1 to PD-L1 on tumor cells in cell culture ([10]; MC38 infected with VV-iPDL1/GM at MOI=0.5, anti-IgG Fc staining): bound to PD-L1 on the virus-infected (RFP positive) tumor cells, as well as uninfected (RFP negative) tumor cells; binding of secreted iPDL1 to PD-L1 on CD45− cells in distant tumors [11]: also bound to PD-L1 on CD45− cells in untreated, distant tumors; IFN-γ+ frequency of PD-1+ CD8+ T cells [12]: higher IFN-γ+ frequency of PD-1+ CD8+ T cells

Source: patent US20220064672A1, “ENGINEERED ONCOLYTIC VIRUSES EXPRESSING PD-L1 INHIBITORS AND USES THEREOF” (priority 2020, published 2022)
